Experimental data taken from US9050301B2, “Pharmaceutical composition for treatment of corneal endothelial wounds containing angiogenin” (Chung-Ang University Industry-Academy Cooperation Foundation, priority 2013, dated 2015).

Key:
[1] = test system: rabbit corneal endothelium; experiment: Alizarin red S-staining of corneal endothelium wounded area; assay type: in vivo; details: for Corneal endothelium wounded area observed by alizarin red S-staining: 192 hours (8th day) after freeze damage, compared with control group (p=0.050); for Morphology (hexagonality) of endothelial cells around the wounded area: 192 hours, 200× magnification
Protocol: (§1) 30 eyeballs of 15 healthy white New Zealand rabbits weighing about 2.0 kg to about 3.0 kg without external opacification were anesthetized by intramuscular injection with 12.5 mg/kg of tiletamine/zolazepam (Zoletil®, VirbacLab, France) and 12.5 mg/kg of zylazine (Rompun®, BayerKorea, Korea). Afterwards, 0.5% povidone-iodine was used for disinfection of the whole range of experimental sight. Referring to FIG. 1, an 8 mm-diameter stainless steel rod as a probe was immersed in liquid nitrogen for 3 minutes, removed therefrom once the temperature of the liquid nitrogen reached −196° C., and brought into contact to the central cornea for 15 seconds. Then, each of the eyeballs was washed with 10 cc of 0.9% saline solution. In order to prevent the occurrence of corneal infection, the rabbit corneas were given instillation of Levofloxacin (Cravit®, Santen, Japan) three times a day for 3 days after the damage was induced.
(§2) 3 groups consisting of 10 eyeballs given instillation of angiogenin (200 μg/mL), 7 eyeballs given Y-27632 (10 mM) inhibitor of Rho-associated coiled-coil kinase (ROCK) pathway, and 7 eyeballs as a control group given phosphate-buffered solution (PBS) were each subjected to 50 μl of instillation at a time, and more particularly, 6 times a day for the first 2 days, and then, 4 times a day for the following 2 days, starting immediately after inducing freeze-damages to the trans-corneal endothelium. That is, the instillation was performed 20 times in total for 4 days.
Two eyeballs out of 30 eyeballs in total were each used as a negative control group of normal corneal endothelium and as a positive control group being subjected to alizarin red S-staining immediately after inducing freeze-damages to the trans-corneal endothelium. An overdose of KCl was administrated into the rest of the eyeballs by intramuscular injection 192 hours (8th day) after inducing freeze-damages to the trans-corneal, and accordingly, these eyeballs were sacrificed. Then, 3 eyeballs were removed for each of the control group, the group given angiogenin instillation, and the group given Y-27632 instillation. Then, the whole cornea was pulled off with respect to the corneal limbal boundary, immersed in 1% alizarin red S-staining solution (Lab Chem, Pittsburgh, USA) for 2 minutes, washed with 0.9% saline solution, and then, wet-mount with the endothelium facing upward. Images thereof were immediately obtained after observation by using an optical microscope, and then, the wounded area of the cornea was measured in pixels for a digital image at 40× magnification by using the Image J software (National Institutes of Health (NIH); http://rsbweb.nih.gov/ij/), and the endothelial cells around the wounded areas were observed and compared in terms of hexagonality at 200× magnification.

[2] = test system: rabbit corneal endothelial cells; experiment: In vitro scratch wound healing of cultured rabbit corneal endothelial cells; assay type: cell-based; details: for Wound healing index: angiogenin 2 μg/ml, mean ± SE
Protocol: A corneal endothelial tissue segment obtained from remaining corneal portions other than the central 8 mm corneal portion in cadaveric cornea donated for transplantation and a corneal endothelial tissue segment of a normal rabbit were cultured. Then, each of the corneal tissues was divided into 6 pieces and washed by shaking 6 times in a petri dish to which 7 ml of 5% penicillin/streptomycin (P/S) was added. Then, the washed tissues were each transferred to a 6-well dish such that the endothelial layer was facing down, and the tissues were semi-dried until the dishes were slightly drained. Next, the corneal endothelial cells of the rabbit cornea were cultured in a culture medium (EGM™-2BulletKit™, Lonza, Allendale, USA) containing human epidermal growth factor (hEGF), hydrocortisone, 5% fetal bovine serum (FBS), human […] (hFGF), insulin-like growth factor (IGF), ascorbic acid, gentamicin, and amphotericin-B (EGM™-2BulletKit™, Lonza, Allendale, USA), and the corneal endothelial cells of the human cornea were cultured in a culture medium (Opti-MEM®, Gibco®, New York, USA) supplemented with 8% FBS, calcium (CaCl2), chondroitinsulfate, ascorbic acid, multi-vitamin solution, gentamicin, anti-Pseudomonas aeruginosa antibiotic, pituitary extract, epidermal growth factor (EGF), and nerve growth factor (NGF), for about 5 to 7 days.
Experiments have been carried to identify angiogenin effects on migration and proliferation of the corneal endothelial cells. When the cultured rabbit corneal endothelial cells had about 80-90% confluency in three 6-well dishes, the central part of each well was scratched by a tip of a 200 μl pipette to make wounds. Then, each of the three 6-well dishes was replaced by a culture medium containing 1) 5% FBS (in the control group), 2) Y-27632 (10 μM), and 3) angiogenin (2 μg/ml). At every 0 hour, 12 hours, 24 hours, and 48 hours, digital images of the remaining wounded areas were obtained at 40× magnification of the optical microscope, and measured in pixels by using the Image J software. In addition, each of the three 6-well dishes containing the cultured corneal endothelial cells in the human was scratched in the same manner as described above to make wounds, and then, replaced by a culture medium containing 1) 5% FBS (in the control group), 2) Y-27632 (10 μM), and 3) angiogenin (5 μg/ml). At every 6 hours and 24 hours, the wounded areas were measured by using the Image J software. The ratio of initial wounded area versus recovered area was defined as wound healing index, which is calculated as shown below. Here, the initial wounded area was corrected to be equal before the calculation. Wound healing index(%)=(Initial wounded area−Remaining wounded area)/Initial wounded area

[3] = test system: rabbit corneal endothelium; experiment: Central corneal thickness by ultrasonic pachymeter after trans-corneal freezing damage; assay type: in vivo
Protocol: as §1, §2
After inducing freeze-damages to trans-corneal of all the eyeballs from the group given instillation of angiogenin, the group given instillation of Y-27632, and the control group, the central corneal thickness was measured 3 times by using an ultrasonic corneal pachymeter (POCKET-II, Quantel medical, Clemont-Ferrand, France) at every 48 hours (2nd day), 72 hours (3rd day), 144 hours (6th day), and 192 hours (8th day), thereby calculating a mean value thereof. Here, the maximum measurable value of the ultrasonic corneal pachymeter was referred to 1,000 μm so the maximum corneal thickness was also considered as 1,000 μm.

[4] = test system: human corneal endothelial cells; experiment: In vitro scratch wound healing of cultured human corneal endothelial cells; assay type: cell-based; details: for Wound healing index compared with the control group: 6 and 24 hours, angiogenin 5 μg/ml, Y-27632 10 μM
Protocol: A corneal endothelial tissue segment obtained from remaining corneal portions other than the central 8 mm corneal portion in cadaveric cornea donated for transplantation and a corneal endothelial tissue segment of a normal rabbit were cultured. Then, each of the corneal tissues was divided into 6 pieces and washed by shaking 6 times in a petri dish to which 7 ml of 5% penicillin/streptomycin (P/S) was added. Then, the washed tissues were each transferred to a 6-well dish such that the endothelial layer was facing down, and the tissues were semi-dried until the dishes were slightly drained. […]
Experiments have been carried to identify angiogenin effects on migration and proliferation of the corneal endothelial cells. […] At every 0 hour, 12 hours, 24 hours, and 48 hours, digital images of the remaining wounded areas were obtained at 40× magnification of the optical microscope, and measured in pixels by using the Image J software. […] At every 6 hours and 24 hours, the wounded areas were measured by using the Image J software. The ratio of initial wounded area versus recovered area was defined as wound healing index, which is calculated as shown below. […]
Experiments have been carried to identify optimal concentration of angiogenin to improve in vitro migration and proliferation improvement of the cultured human corneal endothelial cells. […] At every 0 hour, 12 hours, 24 hours, and 48 hours, the wounded areas were measured by using the Image J software. […]

[5] = 48 h after freeze damage, maximum measurable value 1,000 μm
[6] = 72 h after freeze damage, maximum measurable value 1,000 μm
[7] = 144 h after freeze damage, angiogenin 200 μg/mL, Y-27632 10 mM instillation, mean ± SE
[8] = 192 h after freeze damage, angiogenin 200 μg/mL, Y-27632 10 mM instillation, mean ± SE

Molecule | Corneal endothelium wounded area observed by alizarin red S-staining [1] | Morphology (hexagonality) of endothelial cells around the wounded area [1] | Wound healing index compared with the control group ([2]; Y-27632 10 μM, 12, 24, 48 hours) | Central corneal thickness ([3]; 0 h (baseline), mean ± SE) [μm] | Central corneal thickness [3, 5] | Central corneal thickness [3, 6] | Central corneal thickness [3, 7] [μm] | Central corneal thickness [3, 8] [μm] | Wound healing index compared with the control group [4] | Wound healing index ([2]; 12 hours) [%] | Wound healing index ([2]; 24 hours) [%] | Wound healing index ([2]; 48 hours) [%] | Central corneal thickness ([3]; 144 h after freeze damage, angiogenin 200 μg/mL, Y-27632 10 mM instillation, mean ± SE, listed as angiogenin) | Central corneal thickness ([3]; 192 h after freeze damage, angiogenin 200 μg/mL, Y-27632 10 mM instillation, mean ± SE, listed as angiogenin) | Angiogenin concentration giving the highest wound healing index ([4]; 1, 2, 5 and 10 μg/ml tested, 0, 12, 24, 48 hours) [µg/mL]
C[C@@H](N)[C@H]1CC[C@H](C(=O)Nc2ccncc2)CC1 [Y-27632, reference compound] | smaller wounded areas than those of the control group | significant modification of cell morpology | did not show significant difference | 361.7 ± 3.4 | >1,000 μm | >1,000 μm | 571.6 ± 43.0 | 432.5 ± 332.2 | high wound healing index | – | – | – | – | – | –
Angiogenin: 14.4-kDa single chain protein of 123 amino acids, secreted protein capable of inducing angiogenesis | smallest the corneal endothelium wounded area | corneal endothelial cells in even hexagonality | – | 350.4 ± 6.2 | >1,000 μm | >1,000 μm | 503.0 ± 21.1 | 390.3 ± 10.5 | high wound healing index | 28.7±2.9 | 66.7±4.3 | 78.7±2.9 | about 503.0±21.07 μm | about 390.3±10.55 μm | 5
